{
  "source": "paper PMC7275090",
  "about": "“Mode of action of teixobactins in cellular membranes” (Nature Communications, 2020)",
  "molecules": {"B1": {"name": "[R4L10]-teixobactin (peptide)", "peptide": "[dNMeF]IS[dR][d(aIle)]IS[dT]ALI", "modifications": "ester 8-C; also: 13C,15N-labelled at Ile2, Ser3, Ile6, Ser7, Ala9, Leu10", "notes": "Analogue of teixobactin, a natural undecapeptide from Eleftheria terrae; Cyclic depsipeptide with non-proteinogenic and D-residues; also called D-Arg4-Leu10-teixobactin; source: synthetic peptide (solid-phase synthesis, cyclised, purified by RP-HPLC)"}},
  "key": {"[1]": {"experiment": "ssNMR signal intensity of Lipid II-bound teixobactin, DOPC vs DOPG liposomes", "source_text": "(§1) SSNMR samples: MLVs were collected by centrifugation (20,000×g) and loaded into ssNMR rotors. For 3.2 mm rotors, we used 800 nmol of antibiotic with unlabelled Lipid II or I, while we used 400 nmol with labelled Lipid II. For 1.3 mm rotors, samples contained 200 nmol of antibiotic for unlabelled Lipid II or I, while we used 100 nmol for labelled Lipid II. For all ssNMR samples, we used 4 mol%/mol Lipid II or I in the MLVs.\nH/ppm H/ppm N spinlock duration (ms)\nWeaker binding affinity to Lipid II in anionic conditions is a common property of the binding mode of teixobactins.\nTo validate and generalise our findings, we repeated ssNMR studies with a second analogue, [L10]-teixobactin, which is close to natural teixobactin. Both [L10]- teixobactin and [R4L10]-teixobactin show similar behaviour in anionic membranes, i.e., sharp drops in ssNMR sensitivity and marked increase in mobility in the complex. We note that only the difference between natural teixobactin and [Leu10]- teixobactin is the substitution of enduracididine10 by leucine10. We also note that the substitution by enduracididine10 by cationic or hydrophobic residues is tolerated […]\na) 1H-detected 1D NH spectra of Lipid II-bound [Leu10]-teixobactin measured in DOPC (cyan) and DOPG (red) liposomes. The signal-to-noise ratio is more than six times lower in anionic membranes. Both spectra were acquired with fully packed 1.3 mm rotors and 10240 scans each. b)15N T1rho signal decay curves of the bulk signal of Lipid II-bound [Leu10]- teixobactin in DOPC (cyan) and (DOPG (red) membranes. Relaxation is much faster […]\nc) Corresponding 15N R1rho rates of Lipid II-bound [Leu10]-teixobactin in DOPC (cyan) and DOPG (red) membranes. The error bars show the standard error of the fit. Source data are provided as a Source Data file.\nThe spectra were acquired at 700 MHz with 60 kHz magic angle spinning (MAS)."}, "[2]": {"experiment": "ssNMR 15N T1rho relaxation (dynamics of bound teixobactin), Lys-Lipid II", "conditions": "[L10] analogue, 60 kHz MAS", "method": "Relaxation studies: ^1H-detected ^15N T1rho relaxation experiments were carried out at 950 and 700 MHz magnetic field, respectively, using 60 kHz MAS[51]. The ^15N transverse magnetization decay was probed with a ^15N spinlock field of 17.5 kHz. For the bulk, we measured the intensity of the most intense signal at ~8.80 ^1H ppm. T1rho trajectories were fit to single exponentials.\nLipid I or II-doped multi-laminar vesicle preparations: DOPC or DOPG lipids were mixed with Lipid I or II in 1:1 MeOH:CHCl3 at the final Lipid I or II molar ratio (0–4 mol%/mol). The mixtures were dried and the lipid films were hydrated by vortexing with 2 mL of a teixobactin solution in 40 mM phosphate, 25 mM NaCl, pH 7.0.\nas §1"}, "[3]": {"experiment": "Fluorescence microscopy of GUVs doped with NBD-labelled Lipid II (Lipid II clustering)", "conditions": "DOPC GUVs, 1 μM peptide, 4 h", "procedure": "GUVs were prepared using the electroformation method. The GUV cell is a self-assembled system which consists of a 5 mm-thick Teflon plate which is aligned with two titanium electrodes in a closed Teflon chamber. 1.5 μL of 0.5 mM DOPC doped with NBD-labelled Lipid II (0.1 mol%) were brushed on the electrodes. Next, the chamber was filled with 350 μL 0.1 M sucrose solution; the electrodes dipped in and then connected to a power supply which generated a sine wave of voltage 2.5 V at a frequency of 10 Hz for 90 min. Each microscopy slide (μ-slide 8 well, Ibidi) was covered with 350 μL BSA solution (1 mg/mL). To detach the GUVs from the electrodes the power supply was changed to square wave of voltage 2 V at a frequency of 2 Hz for 15 min. The slides were immersed in 300 μL 0.1 mM glucose solution to which 80 μL of GUVs were added. These were incubated for 4 h with 1 μM [R4L10]-teixobactin and observed by confocal microscopy. Anionic GUVs were prepared using a homemade electroformation setup with ITO coverslips (18 × 18 mm, 15–30 Ω, SPI supplies). On both slips, 3 μL of a chloroform–methanol (1:1, vol/vol) solution containing 1 mM of a 3:1 mixture of DOPC:DOPG (mol/mol) and 0.1 mol% NBD-labelled Lipid II was deposited and dried in a vacuum desiccator. With these slips, the electroformation chamber was assembled and filled with 0.1 M sucrose solution. The GUV cell was connected to the power supply and an alternating current applied (1 V, 10 Hz). GUV formation was carried out overnight.\nMicroscopy: GUVs were imaged using Zeiss LSM 880 with ×63/1.2NA glycerol objective lens. The NBD label appeared green upon excitation by the 488 nm laser. The emission range for detection was 530–545 nm (λem peak = 539 nm). The brightfield images were used for detection and location of the GUVs without a fluorescent signal and also as a control to observe their shape."}, "[4]": {"conditions": "vancomycin, unlike teixobactins; cited from earlier work", "source_text": "In summary, a picture of a balanced binding mode emerges in which teixobactins use the conserved pyrophosphate as firm, specific anchor, whereas the interaction with the sugar-pentapeptide headgroup is more loosely defined[28],[29]. This behaviour enables teixobactins to recognize different cognate cell-wall building blocks and wall teichoic acids precursors, such as Lipid I, Lipid II, Lipid III, and undecaprenyl pyrophosphate that all have the PPi moiety in common but feature different headgroups. The capacity to recognize several conserved precursor molecules both maximizes the number of ..."}, "[5]": {"target": "the molecule itself", "experiment": "solid-state NMR; 2D 13C13C PARISxy spectra with long magnetization transfer times (50-1000 ms), distance threshold ~8 Å; 13C,15N-labelled [R4L10]-teixobactin bound to unlabelled Lipid II (4 mol%) in DOPC membranes; 950 MHz, 15.5 kHz MAS, 270 K"}},
  "note": "Bridge positions count the residues as written; N and C are the ends. Square brackets hold non-standard residues; d marks the D form. Ends that are not written are not given here. d(aIle) = CC[C@H](C)[C@@H](N)C(=O)O; dNMeF = CN[C@H](Cc1ccccc1)C(=O)O",
  "data": [
    {"molecule": "Leu10-teixobactin [[L10]-teixobactin]", "values": [
      {"measurement": "signal-to-noise ratio, times lower in anionic membranes", "setting": "[1]; DOPG vs DOPC, 1H-detected 1D NH spectra, 10240 scans each", "value": "more than six"},
      {"measurement": "relative 1D NH signal, DOPC", "setting": "[1]; Supplementary Figure 11a, DOPC (reference)", "value": 100, "unit": "%"},
      {"measurement": "relative 1D NH signal, DOPG", "setting": "[1]; Supplementary Figure 11a, DOPG relative to DOPC", "value": 15, "unit": "%"},
      {"measurement": "Bulk 15N R1rho", "setting": "[2]; Lys-LII in DOPC (Lys-LII PC)", "value": 5.29, "unit": "s⁻¹"},
      {"measurement": "Bulk 15N T1rho", "setting": "[2]; Lys-LII in DOPC (Lys-LII PC)", "value": 189.00, "unit": "ms"},
      {"measurement": "Bulk 15N R1rho", "setting": "[2]; Lys-LII in DOPG (Lys-LII PG)", "value": 18.49, "unit": "s⁻¹"},
      {"measurement": "Bulk 15N T1rho", "setting": "[2]; Lys-LII in DOPG (Lys-LII PG)", "value": 54.07, "unit": "ms"},
      {"measurement": "Lipid II segregation into clusters on GUVs", "setting": "[3]; 0.1 mol% NBD-Lipid II", "value": "segregation of Lipid II into clusters"},
      {"measurement": "vesicle integrity and morphology after incubation", "setting": "[3]; brightfield images, cluster sites show slight membrane deformations", "value": "morphology is maintained"}
    ]},
    {"molecule": "vancomycin", "values": [
      {"measurement": "ability to bind Lipid II versions with different pentapeptides", "setting": "[4]", "value": "unlike vancomycin"}
    ]},
    {"molecule": "B1", "values": [
      {"measurement": "binding result", "setting": "[5]", "value": "binds"}
    ]}
  ]
}
